From patent US9192635B2

Experiment: Hydrogen peroxide retention after desiccation and rehydration (peroxide check strips)
Assay type: physicochemical
Details: 1-10 g extract in 20 ml 35% hydrogen peroxide, heated at 80° C. to 5 ml, rehydrated; colorimetric strips

With `Oc1ccc(C=Cc2cc(O)cc(O)c2)cc1` [resveratrol, Resveratrol] the peroxide retention capability was “relatively less ability to form stable perhydrates”.
